Measured values taken from the Kinase Knowledgebase extract (Sharma et al. 2016).

Molecular target: CDK2 (UniProt P24941)
Assay: Enzyme Assay
Conditions: concentration not given here

| Compound | inhibition [%] |
| --- | --- |
| CC(C)c1cc(C(N)=O)c(NC(=O)/C=C/c2c[nH]cn2)s1 | 100 |
| CN1CCc2c(sc(NC(=O)c3ccc(I)cc3)c2C(N)=O)C1 | 100 |
| Cc1ccc(C(=O)Nc2sc(C(C)C)cc2C(N)=O)c(C)c1 | 100 |
| CC(C)c1cc(C(N)=O)c(NC(=O)CC2CCCC2)s1 | 100 |
| CN1CCc2c(sc(NC(=O)c3sc4ccccc4c3Cl)c2C(N)=O)C1 | 100 |
| CC(=O)Nc1ccc(Br)c(C(=O)Nc2sc3c(c2C(N)=O)CCN(C)C3)c1 | 100 |
| Cc1sc(NC(=O)Cc2cn(C)c3ccccc23)c(C(N)=O)c1C | 100 |
| COc1ccc(/C=C\C(=O)Nc2scc(C)c2C(N)=O)cc1OC | 100 |
| COc1cc(OC)c(C(=O)Nc2sc3c(c2C(N)=O)CCN(C)C3)c(OC)c1 | 100 |
| NC(=O)c1cc(Cc2ccccc2)sc1NC(=O)c1n[nH]c2ccccc12 | 100 |
| CC(c1ccccc1)c1cc(C(N)=O)c(NC(=O)C2CC(=O)c3ccccc32)s1 (centres undefined) | 100 |
| NC(=O)c1c(NC(=O)Cc2ccccc2)sc2c1CCCC2 | 100 |
| CC(C)c1cc(C(N)=O)c(NC(=O)c2ccccc2F)s1 | 100 |
| Cc1sc(NC(=O)c2coc3ccccc3c2=O)c(C(N)=O)c1C | 100 |
| Cc1nc2cc(C(=O)Nc3sc(C)c(C)c3C(N)=O)ccc2[nH]1 | 100 |
| NC(=O)c1cc(Cc2ccccc2)sc1NC(=O)c1ccc2c(c1)OCO2 | 100 |
| N#CC1(C(=O)Nc2sc3c(c2C(N)=O)CCCC3)CC1 | 100 |
| Cc1sc(NC(=O)c2cccc(Cl)c2Cl)c(C(N)=O)c1C | 100 |
| CC(C)c1cc(C(N)=O)c(NC(=O)Cc2cccs2)s1 | 100 |
| NC(=O)c1cc(-c2ccccc2)sc1NC(=O)CCN1CCCCC1 | 100 |
| Cc1sc(NC(=O)c2ccc(OC(C)C)cc2)c(C(N)=O)c1C | 100 |
| CCCC(Nc1sc(Cc2ccccc2)cc1C(N)=O)C(=O)NC(N)=O (centres undefined) | 100 |
| Cc1sc(NC(=O)c2ccc(Cl)c(Cl)c2)c(C(N)=O)c1C | 100 |

| Compound | inhibition [%] |
| --- | --- |
| NC(=O)c1c(NC(=O)c2ccncc2)sc2c1CCCC2 | 100 |
| NC(=O)c1c(NC(=O)c2cc[nH]c2)sc2c1CCCC2 | 100 |
| CC1=C(C(=O)Nc2sc(C(C)c3ccccc3)cc2C(N)=O)Cc2ccccc21 (centres undefined) | 100 |
| COc1ccc(C(=O)Nc2sc(C)c(C)c2C(N)=O)cc1OC | 100 |
| Cc1oncc1C(=O)Nc1sc2c(c1C(N)=O)CCCC2 | 100 |
| CC(c1ccccc1)c1cc(C(N)=O)c(NC(=O)C2CCc3ccccc3C2)s1 (centres undefined) | 100 |
| NC(=O)c1cc(Cc2ccccc2)sc1NC(=O)c1ccc2[nH]cnc2c1 | 100 |
| CCC(N)C(=O)N(C(N)=O)c1sc(C(C)C)cc1C(N)=O (centres undefined) | 100 |
| CC(c1ccccc1)c1cc(C(N)=O)c(NC(=O)c2ccc3ccccc3n2)s1 (centres undefined) | 100 |
| CC(c1ccccc1)c1cc(C(N)=O)c(NC(=O)C2=CN(C)CCC2)s1 (centres undefined) | 100 |
| CC(=O)Nc1cccc(C(=O)Nc2sc(C(C)c3ccccc3)cc2C(N)=O)c1 (centres undefined) | 100 |
| Cc1sc(NC(=O)C2(c3ccccc3)CCCC2)c(C(N)=O)c1C | 100 |
| Cc1ccc(CC(=O)Nc2sc(C(C)C)cc2C(N)=O)cc1 | 100 |
| COc1ccc(CC(=O)Nc2scc(C)c2C(N)=O)c(OC)c1 | 100 |
| NC(=O)c1c(NC(=O)C2CCCC2)sc2c1CCCC2 | 100 |
| Cc1csc(NC(=O)c2ccccc2S(C)(=O)=O)c1C(N)=O | 100 |
| NC(=O)c1cc(-c2ccccc2)sc1NC(=O)Cc1ccccc1O | 100 |
| Cc1ccc(O)c(C(=O)Nc2sc(-c3ccccc3)cc2C(N)=O)c1 | 100 |
| NC(=O)c1cc(Cc2ccccc2)sc1NC(=O)CCN1C(=O)C=CC1=O | 100 |
| NC(=O)c1c(NC(=O)c2ccccc2O)sc2c1CCCC2 | 100 |
| CC(C)c1cc(C(N)=O)c(NC(=O)C2CNC(=O)N2)s1 (centres undefined) | 100 |
| Cc1csc(NC(=O)CNC(=O)/C=C/c2ccco2)c1C(N)=O | 100 |
| NC(=O)c1cc(-c2ccccc2)sc1NC(=O)C(F)c1ccccc1 (centres undefined) | 100 |

| Compound | inhibition [%] |
| --- | --- |
| NC(=O)c1c(NC(=O)c2cccs2)sc2c1CCCC2 | 100 |
| NC(=O)c1c(NC(=O)C2(C(N)=O)CC2)sc2c1CCCC2 | 100 |
| NC(=O)c1cc(-c2ccccc2)sc1NC(=O)CCc1cccs1 | 100 |
| COc1ccc(/C=C\C(=O)Nc2sc(C(C)c3ccccc3)cc2C(N)=O)cc1 (centres undefined) | 100 |
| COc1cc(C(=O)Nc2sc(Cc3ccccc3)cc2C(N)=O)ccc1C | 100 |
| COc1cc(C(=O)Nc2sc(Cc3ccccc3)cc2C(N)=O)ccc1O | 100 |
| NC(=O)c1cc(Cc2ccccc2)sc1NC(=O)c1cc2ccccc2[nH]1 | 100 |
| CC(c1ccccc1)c1cc(C(N)=O)c(NC(=O)c2ccc3ncccc3c2)s1 (centres undefined) | 100 |
| COc1cc(CC(=O)Nc2scc(C)c2C(N)=O)cc(OC)c1 | 100 |
| CC(c1ccccc1)c1cc(C(N)=O)c(NC(=O)c2cc3ccccc3n2C)s1 (centres undefined) | 100 |
| NC(=O)c1cc(-c2ccccc2)sc1NC(=O)Cc1ccc(F)cc1 | 100 |
| CN1CCc2c(sc(NC(=O)CCS(=O)(=O)c3ccccc3)c2C(N)=O)C1 | 100 |
| Cc1csc(NC(=O)c2cc(-n3cccc3)ccc2O)c1C(N)=O | 100 |
| NC(=O)c1cc(-c2ccccc2)sc1NC(=O)/C=C/c1cccs1 | 100 |
| Cc1cc(C(=O)Nc2sc3c(c2C(N)=O)CCCC3)no1 | 100 |
| Cc1csc(NC(=O)C2c3ccccc3-c3ccccc32)c1C(N)=O | 100 |
| CN1CCc2c(sc(NC(=O)/C=C\C(=O)Nc3cccc4ccccc34)c2C(N)=O)C1 | 100 |
| Cc1sc(NC(=O)c2c(Cl)cccc2Cl)c(C(N)=O)c1C | 100 |
| CCC(=O)Nc1sc2c(c1C(N)=O)CCCC2 | 100 |
| CC(C)c1cc(C(N)=O)c(NC(=O)/C=C\c2ccccc2)s1 | 100 |
| CC(C)c1cc(C(N)=O)c(NC(=O)CCc2cccnc2)s1 | 100 |
| Cc1csc(NC(=O)CCNC(=O)c2ccccc2)c1C(N)=O | 100 |
| Cc1csc(NC(=O)Cc2c[nH]c3ccc(O)cc23)c1C(N)=O | 100 |

| Compound | inhibition [%] |
| --- | --- |
| NC(=O)c1c(NC(=O)c2cccnc2)sc2c1CCCC2 | 100 |
| C/C(=C/c1ccccc1)C(=O)Nc1sc(-c2ccccc2)cc1C(N)=O | 100 |
| Cc1cccc(C(=O)Nc2sc(-c3ccccc3)cc2C(N)=O)c1O | 100 |
| CC(c1ccccc1)c1cc(C(N)=O)c(NC(=O)c2cnc3ccccc3n2)s1 (centres undefined) | 100 |
| CN1CCc2c(sc(NC(=O)c3cc4cc(Cl)ccc4[nH]3)c2C(N)=O)C1 | 100 |
| Cc1csc(NC(=O)Cc2csc3ccccc23)c1C(N)=O | 100 |
| CC(=O)Nc1sc2c(c1C(N)=O)CCCC2 | 100 |
| NC(=O)c1cc(Cc2ccccc2)sc1NC(=O)/C=C\c1ccc(O)cc1 | 100 |
| CN1CCc2c(sc(NC(=O)Cc3c[nH]c4ccc(F)cc34)c2C(N)=O)C1 | 100 |
| CC(c1ccccc1)c1cc(C(N)=O)c(NC(=O)c2cc(Cl)ccc2O)s1 (centres undefined) | 100 |
| CC(c1ccccc1)c1cc(C(N)=O)c(NC(=O)c2ccc(Cl)cc2O)s1 (centres undefined) | 100 |
| Cc1ccc(C(=O)Nc2sc3c(c2C(N)=O)CCCC3)cc1 | 100 |
| Cc1sc(NC(=O)c2ccc(C(F)(F)F)cc2)c(C(N)=O)c1C | 100 |
| CC(c1ccccc1)c1cc(C(N)=O)c(NC(=O)c2cnc3ccccc3c2)s1 (centres undefined) | 100 |
| CN1CCc2c(sc(NC(=O)Cc3ccc(S(C)(=O)=O)cc3)c2C(N)=O)C1 | 100 |
| Cc1cccc(CC(=O)Nc2sc(C(C)C)cc2C(N)=O)c1 | 100 |
| CN(C)CCCC(=O)Nc1sc(Cc2ccccc2)cc1C(N)=O | 100 |
| Cc1csc(NC(=O)C(C)NC(=O)c2ccccc2)c1C(N)=O (centres undefined) | 100 |
| CN(C)c1ccc(C(=O)Nc2sc(Cc3ccccc3)cc2C(N)=O)cc1 | 100 |
| CC1(C)CC(=O)C=C(C(=O)Nc2sc(Cc3ccccc3)cc2C(N)=O)O1 | 100 |
| Cc1csc(CC(=O)c2c(-c3ccccc3)noc2C)c1C(N)=O | 100 |
| CNC(=O)CN(C(=O)c1ccccc1)c1scc(C)c1C(N)=O | 100 |
| CC(C)c1cc(C(N)=O)c(NC(=O)c2cccc(C#N)c2)s1 | 100 |

| Compound | inhibition [%] |
| --- | --- |
| COc1ccc2cc(C(=O)Nc3scc(C)c3C(N)=O)[nH]c2c1 | 100 |
| COc1cccc(C(=O)Nc2sc(Cc3ccccc3)cc2C(N)=O)c1O | 100 |
| Cn1cccc1C(=O)Nc1sc2c(c1C(N)=O)CCCC2 | 100 |
| Cc1sc(NC(=O)c2cc(=O)c3ccccc3o2)c(C(N)=O)c1C | 100 |
| Cc1sc(NC(=O)/C=C\c2ccc3c(c2)OCO3)c(C(N)=O)c1C | 100 |
| COc1ccccc1OCC(=O)Nc1sc(C)c(C)c1C(N)=O | 100 |
| Cc1ccc(C(=O)Nc2sc(-c3ccccc3)cc2C(N)=O)cc1O | 100 |
| Cc1sc(NC(=O)c2cc3cc(O)ccc3[nH]2)c(C(N)=O)c1C | 100 |
| COc1ccc(C(=O)Nc2sc(C)c(C)c2C(N)=O)cc1Cl | 100 |
| Cc1csc(NC(=O)C2=COc3ccc(Cl)cc3C2)c1C(N)=O | 100 |
| CC(c1ccccc1)c1cc(C(N)=O)c(NC(=O)c2cccc3ccccc23)s1 (centres undefined) | 100 |
| NC(=O)/C=C\C(=O)N(C(N)=O)c1sc(Cc2ccccc2)cc1C(N)=O | 100 |
| CN(C)c1ccccc1C(=O)Nc1sc(Cc2ccccc2)cc1C(N)=O | 100 |
| CC(C)c1cc(C(N)=O)c(NC(=O)C(C)c2ccccc2)s1 (centres undefined) | 100 |
| CN(C)c1cccc(C(=O)Nc2sc(Cc3ccccc3)cc2C(N)=O)c1 | 100 |
| CC(C)c1cc(C(N)=O)c(NC(=O)CCC(=O)N(C)C)s1 | 100 |
| CCCCC(C)(C)C(=O)Nc1sc(C(C)C)cc1C(N)=O | 100 |
| CC(=O)NC(=O)C1CCCN1c1sc(-c2ccccc2)cc1C(N)=O (centres undefined) | 100 |
| NC(=O)c1cc(-c2ccccc2)sc1NC(=O)C1(c2ccccc2)CC1 | 100 |
| Cc1sc(NC(=O)/C=C\c2ccc(N(C)C)cc2)c(C(N)=O)c1C | 100 |
| CC(=O)NC(=O)C(Nc1sc(-c2ccccc2)cc1C(N)=O)C(C)C (centres undefined) | 100 |
| NC(=O)c1c(NC(=O)c2ccc[nH]2)sc2c1CCCC2 | 100 |
